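Tested at 5 concentrations; 48 h exposure; 96-well plates; endpoints linearly interpolated, else capped at highest concentration. Here, GI50 denotes the concentration required for 50% inhibition of growth. TGI is the concentration that stops growth completely.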
How the values were obtained:
Assay in all cases: NCI-60 cell line screen, 48 h
A549 NSCLC = tested on: A549 NSCLC
CCRF-CEM leukemia = tested on: CCRF-CEM leukemia
HCT-116 colon = tested on: HCT-116 colon
HOP-92 NSCLC = tested on: HOP-92 NSCLC
K-562 leukemia = tested on: K-562 leukemia
KM12 colon = tested on: KM12 colon
NCI-H226 lung = tested on: NCI-H226 lung
RXF 393 renal = tested on: RXF 393 renal
UACC-257 melanoma = tested on: UACC-257 melanoma
UACC-62 melanoma = tested on: UACC-62 melanoma

Compound	TGI (A549 NSCLC) [µM]	TGI (CCRF-CEM leukemia) [µM]	TGI (HCT-116 colon) [µM]	TGI (HOP-92 NSCLC) [µM]	TGI (K-562 leukemia) [µM]	TGI (KM12 colon) [µM]	TGI (NCI-H226 lung) [µM]	TGI (RXF 393 renal) [µM]	TGI (UACC-257 melanoma) [µM]	TGI (UACC-62 melanoma) [µM]	GI50 (A549 NSCLC) [µM]	GI50 (CCRF-CEM leukemia) [µM]	GI50 (HCT-116 colon) [µM]	GI50 (HOP-92 NSCLC) [µM]	GI50 (K-562 leukemia) [µM]	GI50 (KM12 colon) [µM]	GI50 (NCI-H226 lung) [µM]	GI50 (RXF 393 renal) [µM]	GI50 (UACC-257 melanoma) [µM]	GI50 (UACC-62 melanoma) [µM]
CC(=O)Nc1cc2cc(NS(=O)(=O)c3cc(C(F)(F)F)cc(C(F)(F)F)c3)ccc2oc1=O	> 100	> 100	> 100	> 100	> 100	> 100	> 100	0.811	> 100	> 100	–	–	–	–	–	–	–	–	–	–
Cc1[nH]n(-c2ccccc2)c(=O)c1C(=O)c1ccccc1	> 25	> 25	> 25	> 25	> 25	> 25	> 25	> 25	> 25	> 25	11.7	> 25	> 25	> 10.6	> 21.3	11.7	> 25	> 25	> 25	> 25
COC(=O)c1nn(C(=N)c2ccc(Cl)cc2)c2c1CCCCC2	> 100	> 100	> 100	> 100	> 100	> 100	> 100	> 100	> 100	> 100	–	–	–	–	–	–	–	–	–	–
O[C@H](CN1CC1)[C@@H](O)CN1CC1	> 100	> 100	35.6	67.9	> 100	28.1	26	26.1	89.9	> 100	7.28	0.604	5.83	7.62	6.84	11.7	3.17	7.35	11.6	3.96
COC(=O)/C(=N/O)C(C(=O)OC)C(=O)C(=O)Nc1c(Cl)cc(C)cc1S(=O)(=O)O (stereo not given)	> 100	> 100	> 100	> 100	> 100	> 100	> 100	> 100	> 100	> 100	–	–	–	–	–	–	–	–	–	–
Cc1cc(Cl)ccc1NC(=O)NC(C)(C)COC(=O)Nc1cccc(Cl)c1	66.4	37.3	> 100	26.4	> 100	17.6	> 100	78.6	42.5	> 100	5.05	3.88	6.3	3.48	5.09	3.78	13.6	17.5	8.23	4.73
COc1cccc2ccc3c(c12)C(=O)OC31CCc2c(C)cccc21 (stereo not given)	> 46.4	> 100	> 31.6	87.9	89.5	> 100	> 31.6	44.6	> 100	> 46.4	–	–	–	–	–	–	–	–	–	–

Source: PubChem BioAssay (NCI)
